“Also recorded” adds a separate entry of the source.
Legend:
[1] = tested on: gp120 interaction with mAb 17b; conditions: read-out: IC50(SPR) mAb 17b, shown for comparison, ref ([19]) and ([30]); cited from earlier work
[2] = biological target: S375A gp120 (Human immunodeficiency virus type 1 group M subtype B, UniProt P35961, S370A); assay type: binding, HIV-1; conditions: immobilized S375A gp120, SPR
[3] = tested on: gp120 interaction with sCD4; conditions: read-out: IC50(SPR) sCD4, shown for comparison, ref ([19]) and ([30]); cited from earlier work
[4] = biological target: S375A gp120 interaction with sCD4 (Human immunodeficiency virus type 1 group M subtype B, UniProt P35961, S370A); assay: SPR KR21/sCD4 competition over immobilized S375A gp120; assay type: binding, HIV-1; conditions: S375A versus WT
[5] = tested on: mutant gp120 (S375W); conditions: ref ([15]); cited from earlier work
[6] = tested on: mutant gp120 (I423P) binding of F105 antibody; conditions: ref ([15], [48]); cited from earlier work

Compound | IC50 [1] [nM] | direct binding to S375A gp120 [2] | IC50 [3] [nM] | reduction in sCD4 inhibitory potency, S375A compared to WT gp120 [4] [fold] | binding to gp120 with pocket-filling S375W mutation [5] | inhibition of sCD4 binding to mutant gp120 (S375W) [5] | inhibition of F105 antibody binding to mutant gp120 (I423P) [6]
CC[C@H](C)[C@H](NC(=O)[C@@H](N)CCCNC(=N)N)C(=O)N[C@@H](CC(N)=O)C(=O)N[C@@H](CC(N)=O)C(=O)N[C@H](C(=O)N1C[C@@H](n2cc([C]34[CH]5[CH]6[CH]7[CH]3[Fe]6754389%10[CH]4[CH]3[CH]8[CH]9[CH]4%10)nn2)C[C@H]1C(=O)N[C@@H](Cc1c[nH]c2ccccc12)C(=O)NCCC(=O)N[C@@H](CCCCNC(=O)CCCC[C@@H]1SC[C@@H]2NC(=O)N[C@@H]21)C(=O)NCC(N)=O)[C@@H](C)CC (stereo partly drawn) [KR21, R^1-I^2-N^3-N^4-I^5-X^6-W^7-βA^8-BtLys^9-G^10] | 110 | severely disrupted; also recorded: could not be fitted | 85 | 20 | – | – | –
RINNIPWSEAMM [12p1] | 1600 | – | 1100 | – | completely abrogated | does not inhibit; also recorded: resistant | inhibits
